Experimental data: US10960084B2, “Modulation of fluid intake” (California Institute of Technology, priority 2018, dated 2021)
Entries after “also recorded” stand apart in the source; their conditions may differ.

How the values were obtained:
Format in all cases: in vivo, mice
MnPO^nNOS neurons = test: Drinking assays with chemogenetic inhibition of MnPO^nNOS neurons by CNO; details: hM4Di in MnPO^nNOS, CNO injection 10 mg/kg
Experimental: For water-restriction experiments, animals were provided with 1 mL of water daily. For food restriction experiments, animals were provided 0.5 pellets/20 g body weight daily. All assays were performed in a modified lickometer as described previously^[35] or Biodaq monitoring system (Research Diets Inc). For all photometry assays, animals were acclimatized for 10-15 min in the lickometer cage before stimuli were given.
Long-term access assays: Optogenetic Testing—For FIGS. 1L-N and FIGS. 7L-O, satiated mice were given ad libitum access to water for 20 min with photostimulation. Photostimulation was delivered for 1-s followed by 3-s intervals throughout the behavioral sessions. For FIGS. 2J-M and FIGS. 11C-E, mice were given access to water for 20 min after 24 h water-restriction, and photostimulation was delivered for the first 10 min. For feeding assays (FIGS. 2J-M), animals were single-housed in Biodaq cages after 24 h food-restriction, and chow intake was measured for 20 min with or without light stimulation. For acute inhibition experiments, mice were given access to 150 mM NaCl (FIGS. 5D-E, FIGS. 13E-F), water (FIGS. 1L-N, FIGS. 7L-O, FIGS. 13A-D, FIGS. 13G-H) for 20-30 min after 24 h water-restriction or 300 mM sucrose (FIGS. 1L-N, FIGS. 7L-O) after food-restriction. For all acute inhibition experiments, CNO was injected at 10 mg/kg body weight, 30 min prior to the start of the behavior session. For acute activation experiments, CNO was injected at 1 mg/kg body weight (FIGS. 12L-M), 30 min prior to the start of the behavior session. For FIG. 3A, FIGS. 9A-C, and FIG. 13L, water or saline access was provided for 30 min after 24 hours of water restriction. For FIGS. 4A-B, water or HydroGel (ClearH2O) in a cup was provided for 30 min after 24 and 36 hours of water restriction, respectively. The weight of the cup was measured before and after the behavior session. For FIGS. 4K-L, 0.5 pellets of chow was provided for 30 min after 24 h food-restriction. The entire session was recorded using a camera at 30 fps and ingestion episodes were manually annotated. […]

SFO^nNOS neurons = test: Salt/Mannitol loading with fiber photometry of SFO^nNOS/MnPO^nNOS neurons and drinking
Experimental: Salt/Mannitol Loading Experiments: 150 μL/300 μL of 2 M NaCl or 300 μL of 2 M Mannitol was injected intraperitoneally at the end of the acclimatization period. For FIGS. 1P-T and FIGS. 7P-S, CNO or vehicle (water) was injected 10 min prior to NaCl/Mannitol injection. We measured bulk fluorescence signals using fiber photometry as previously described^[26]. Briefly, 490 nm and 405 nm LEDs ([…] and […]) were collimated and delivered to the brain. The light intensity was kept less than 100 μW during all recordings. The fluorescence signal was then focused onto a femtowatt photoreceiver (Newport, Model 2151). The modulation and demodulation were done with an RP2.1 real time processor (Tucker-Davis Technologies) running custom software. The licks from the lickometer were simultaneously recorded as real-time TTL signals to the RP2.1. Fluorescence changes were analyzed using custom MATLAB (MathWorks) code as described previously^[26]. Data were extracted and subjected to a low pass filter at 1.8 Hz. A linear function was used to scale up the 405 nm channel signal to the 490 nm channel signal to get the fitted 405 nm signal. The resultant ΔF/F was calculated as (raw 490 nm signal-fitted 405 nm signal)/(fitted 405 nm signal). For brief access tests, the Area Under Curve (ΣΔFduring) was quantified by integrating the fluorescence signals during the bout. For all bouts, the mean fluorescence for 30 s prior to the first lick was calculated and subtracted from the entire session. ΔF changes (ΔFpost-ΔFpre) were calculated by subtracting the mean fluorescence signal during the 2-s period before the first lick from the mean signal during the 2-s at 1 min after the bout. For displaying traces, the fluorescence data was time-binned by a factor of 2.5 times the sampling frequency and down-sampled to 1 Hz. For long-term tests, the Area Under Curve was calculated for 2.5 min after the start of the bout. […] For […]), the first bout at the start of the session and the last bout within 10 min of access were used. The AUC for the PSTHs were calculated during the first or the last 15 seconds.

mCherry control animals = test: mCherry controls for acute inhibition (CNO without hM4Di)
Experimental: Long-term access assays: Optogenetic Testing—For FIGS. 1L-N and FIGS. 7L-O, satiated mice were given ad libitum access to water for 20 min with photostimulation. Photostimulation was delivered for 1-s followed by 3-s intervals throughout the behavioral sessions. For FIGS. 2J-M and FIGS. 11C-E, mice were given access to water for 20 min after 24 h water-restriction, and photostimulation was delivered for the first 10 min. For feeding assays (FIGS. 2J-M), animals were single-housed in Biodaq cages after 24 h food-restriction, and chow intake was measured for 20 min with or without light stimulation. For acute inhibition experiments, mice were given access to 150 mM NaCl (FIGS. 5D-E, FIGS. 13E-F), water (FIGS. 1L-N, FIGS. 7L-O, FIGS. 13A-D, FIGS. 13G-H) for 20-30 min after 24 h water-restriction or 300 mM sucrose (FIGS. 1L-N, FIGS. 7L-O) after food-restriction. For all acute inhibition experiments, CNO was injected at 10 mg/kg body weight, 30 min prior to the start of the behavior session. For acute activation experiments, CNO was injected at 1 mg/kg body weight (FIGS. 12L-M), 30 min prior to the start of the behavior session. […] The weight of the cup was measured before and after the behavior session. […] The entire session was recorded using a camera at 30 fps and ingestion episodes were manually annotated.

[1] = GCaMP6s fiber photometry, MnPO^nNOS inhibited by CNO

Compound: C[N+]1([O-])CCN(C2=Nc3cc(Cl)ccc3Nc3ccccc32)CC1 [CNO, clozapine-N-oxide]
- SFO^nNOS-stimulated water intake (MnPO^nNOS neurons; SFO^nNOS photostimulation): severely suppressed water consumption; also recorded: severely reduced
- sucrose (300 mM) consumption (MnPO^nNOS neurons; food-restricted animals): did not decrease sugar; also recorded: did not suppress sucrose consumption
- dehydration-induced water intake (MnPO^nNOS neurons; water-restricted animals): severely suppressed water consumption; also recorded: severely reduced
- calcium increases / activity of SFO^nNOS neurons by mannitol-induced osmotic stress (SFO^nNOS neurons; [1]): unaffected; also recorded: without changing the activity
- calcium increases in SFO^nNOS neurons by NaCl-induced osmotic stress (SFO^nNOS neurons; [1]): unaffected
- drinking behavior after Mannitol injection (SFO^nNOS neurons; hM4Di in MnPO^nNOS, CNO 10 min prior to intraperitoneal Mannitol): intensely suppressed drinking responses; also recorded: drastically suppressed drinking behavior
- drinking behavior after NaCl injection (SFO^nNOS neurons; hM4Di in MnPO^nNOS, CNO 10 min prior to intraperitoneal NaCl): intensely suppressed drinking responses; also recorded: drastically suppressed drinking behavior
- intake after water or food-restriction (mCherry control animals; AAV-DIO-mCherry in the MnPO of nNOS-Cre animals, 5-s brief access): showed no reduction
- saline or water drinking, CNO vs vehicle (mCherry control animals; mCherry controls in MnPO^GLP1r, water deprived, 30 min): No significant difference
